Assay results published in PMC10005332, “It Takes Two to Tango, Part II: Synthesis of A-Ring Functionalised Quinones Containing Two Redox-Active Centres with Antitumour Activities” (Molecules, 2023).
Like-named read-outs stand apart in the source and are kept apart here.

Assays:
[1] = test system: B16 (murine melanoma); assay: MTT cytotoxicity assay, B16; assay type: cell-based; details: for IC50: Mus musculus, MTT, 72 h exposure, three independent experiments, read-out: Cytotoxic activity IC50 (95% CI) B16; for Selectivity index B16: ratio of cytotoxicity L929 / B16
Method in brief: (§1)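 IC50 values derive from nonlinear regression of MTT read-outs at 595 nm. Mycoplasma-free cells in RPMI 1640 or DMEM with 10% fetal serum were exposed to test compounds for 72 h, then given MTT for 3 h. Selectivity index uses L929 versus tumour-line cytotoxicity.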

[2] = test system: KG1 (human acute myeloid leukaemia); assay: MTT cytotoxicity assay, KG1; assay type: cell-based; details: for IC50: Homo sapiens, MTT, 72 h exposure, three independent experiments, read-out: Cytotoxic activity IC50 (95% CI) KG1; for Selectivity index KG1: ratio of cytotoxicity L929 / KG1
Method in brief: as §1

[3] = test system: HL60 (human pro-myelocytic leukaemia); design: method as in PMID 34778772; details: ratio L929 / HL60; * data previously described; cited from earlier work
[4] = test system: RAJI (human Burkitt’s lymphoma); assay: MTT cytotoxicity assay, RAJI; assay type: cell-based; details: for IC50: Homo sapiens, Raji, 72 h, MTT, 72 h exposure, three independent experiments, read-out: Cytotoxic activity IC50 (95% CI) RAJI; for Selectivity index RAJI: ratio of cytotoxicity L929 / RAJI
Method in brief: as §1

[5] = test system: A549 (human lung carcinoma); assay: MTT cytotoxicity assay, A549; assay type: cell-based; details: for IC50: Homo sapiens, A549, MTT, 72 h exposure, three independent experiments, read-out: Cytotoxic activity IC50 (95% CI) A549; for Selectivity index A549: ratio of cytotoxicity L929 / A549
Method in brief: as §1

[6] = test system: HCT-116 (human colorectal carcinoma); design: method as in PMID 34778772; details: ratio L929 / HCT-116; * data previously described; cited from earlier work
[7] = test system: K-562 (human chronic myeloid leukaemia); assay: MTT cytotoxicity assay, K-562; assay type: cell-based; details: for IC50: Homo sapiens, K562, MTT, 72 h exposure, three independent experiments, read-out: Cytotoxic activity IC50 (95% CI) K-562; for Selectivity index K-562: ratio of cytotoxicity L929 / K-562
Method in brief: as §1

[8] = test system: PC3 (human prostate adenocarcinoma); design: method as in PMID 34778772; details: ratio L929 / PC3; * data previously described; cited from earlier work
[9] = test system: SNB-19 (human astrocytoma); design: method as in PMID 34778772; details: ratio L929 / SNB-19; * data previously described; cited from earlier work
[10] = test system: HL60 (human pro-myelocytic leukaemia); assay: MTT cytotoxicity assay, HL60; assay type: cell-based; details: for IC50: MTT, 72 h exposure, three independent experiments, read-out: Cytotoxic activity IC50 (95% CI) HL60
Method in brief: as §1

[11] = test system: L929 cells (non-tumoral mouse fibroblast); assay: MTT cytotoxicity assay, L929 control line; assay type: cell-based; details: 72 h exposure, read-out: Cytotoxic activity IC50 (95% CI) L929
Method in brief: as §1

[12] = MTT cytotoxicity assay, L929 control line; assay type: cell-based, mouse; details: mouse, L929 fibroblast cells (non-tumoral control line), 72 h exposure, read-out: Cytotoxic activity IC50 (95% CI) L929
Method in brief: as §1

[13] = test system: HCT-116 (human colorectal carcinoma); assay: MTT cytotoxicity assay, HCT-116; assay type: cell-based
Method in brief: as §1

[14] = test system: PC3 (human prostate adenocarcinoma); assay: MTT cytotoxicity assay, PC3; assay type: cell-based
Method in brief: as §1

[15] = test system: SNB-19 (human astrocytoma); assay: MTT cytotoxicity assay, SNB-19; assay type: cell-based
Method in brief: as §1

SMILES	IC50 [1] [µM]	Selectivity index B16 [1]	IC50 [2] [µM]	Selectivity index KG1 [2]	IC50 [4] [µM]	Selectivity index RAJI [4]	IC50 [5] [µM]	Selectivity index A549 [5]	IC50 [7] [µM]	Selectivity index K-562 [7]	also measured
COc1cccc2c1C(=O)c1c(O)c3c(c(O)c1C2=O)C[C@@](O)(C(=O)CO)C[C@@H]3O[C@H]1C[C@H](N)[C@H](O)[C@H](C)O1 [DOXO, doxorubicin, reference compound]	0.06	30.2	0.38	4.5	2.33	0.7	0.57	3.0	0.91	1.9	Selectivity index HL60 [3]: 86.0 *; Selectivity index HCT-116 [6]: 8.2 *; Selectivity index PC3 [8]: 2.3 *; Selectivity index SNB-19 [9]: 1.4 *
O=C1C(=O)c2ccccc2C2=C1CC(Cn1cc(CNC3=CC(=O)c4cc5ccccc5cc4C3=O)nn1)O2 (centres unmarked) [Compound 20e, 2-((4-(((1,4-dioxo-1,4-dihydroanthracen-2-yl)amino)methyl)-1H-1,2,3-triazol-1-yl)methyl)-2,3-dihydronaphtho[1,2-b]furan-4,5-dione]	9.57	1.7	37	0.4	5.26	3.0	12.7	1.3	7.58	2.1	IC50 ([10]; Homo sapiens, HL-60, 72 h): 1.6 µM; IC50 [10]: 1.57 µM; Selectivity index HL60 ([10]; ratio of cytotoxicity L929 / HL60): 10.1; IC50 [11]: 15.9 µM; IC50 at 72 h [12]: 15.9 µM; IC50 ([13]; Homo sapiens, HCT-116, 72 h, MTT, 72 h exposure, three independent experiments, read-out: Cytotoxic activity IC50 (95% CI) HCT-116): 7.2 µM; Selectivity index HCT-116 ([13]; ratio of cytotoxicity L929 / HCT-116): 2.2; IC50 ([14]; Homo sapiens, MTT, 72 h exposure, three independent experiments, read-out: Cytotoxic activity IC50 (95% CI) PC3): 17.6 µM; Selectivity index PC3 ([14]; ratio of cytotoxicity L929 / PC3): 0.9; IC50 ([15]; Homo sapiens, SNB-19, MTT, 72 h exposure, three independent experiments, read-out: Cytotoxic activity IC50 (95% CI) SNB-19): 7.87 µM; Selectivity index SNB-19 ([15]; ratio of cytotoxicity L929 / SNB-19): 2.0
